For data set [1], the system named is tadpole. As to conditions: cited from earlier work.
For data set [2], the system named is tadpole. The experiment in a line: Anesthetic potency obtained by use of a tadpole. Format: in vivo. As to conditions: Table 6; potency converted to gaseous system; partial pressure ratio, methanol as 1.00.
For data set [3], the system named is tadpole. Nature of the data set: Anesthetic potency obtained by use of a tadpole. As to conditions: in vivo. The text has this:
In Table 3, potency is a value representing intensity of the anesthetics and is shown as values obtained by use of a tadpole.

The conditions of data set [4]: gas phase.
Source text: At point B in FIG. 9, the coated crystal oscillator or crystal is removed from the cell into atmosphere with the result that the frequency reverts soon to the same as at point A in FIG. 9, at which the coated crystal oscillator or crystal is placed in the cell. […] In the determination of adsorbed amounts from frequency changes thus obtained, the adsorbed amount is represented in terms of partition coefficient obtained by dividing the adsorbed amount by the total weight of the odorous substance molecules actually existing in the gas phase in order to cancel differences in vapor pressure in the gas phase.
For data set [5] the following is noted: for Adsorbed amounts / Frequency Changes -ΔF: Example 9, 2C18 N^+ 2C1 /PSS^-, halothane 9.48×10^-4 M aqueous.
Procedure: In FIG. 6, the immobilized bilayer film is cast on a silver-deposited electrode 2 of the crystal oscillator 1 [or on both sides of a silver-electrode-deposited piezoelectric crystal (9 MHz; AT-cut)] and dipped into deionized water in cell 3, bitter or odorous substances are injected thereinto as a solution thereof through an irritant-injecting device 4, frequency changes after the injection are measured by a frequency measuring means (not shown) constituting the crystal oscillator 1, and adsorbed amounts of bitter or odorous substances onto the immobilized bilayer film are determined from proportionality thereof to the frequency changes thus obtained.
The partition coefficient means a ratio of the adsorbed amount of an irritant such as the bitter or odorous substance or the like onto the immobilized bilayer film to an amount by weight of the irritant such as the bitter or odorous substance or the like in the aqueous solution of a constant volume.
Since frequency changes of 10 Hz or less are considered to be within errors in measurements, the concentration at the frequency change of 10 Hz is defined as a concentration threshold value.
The nature of data set [6]: Adsorption from aqueous phase on poly(methyl-L-glutamate) film.
The conditions of data set [7]: Example 11; CTAB^+ /PSS^-; halothane 9.48×10^-4 M.
The conditions of data set [8]: Comparative Example 6; Polyvinyl chloride, 45° C.; halothane 9.48×10^-4 M.
The conditions of data set [9]: Example 10; Cholesterylammonium poly(p-styrenesulfonate); halothane 9.48×10^-4 M.
Data set [10] is described as follows: Adsorption from aqueous phase on polyvinyl alcohol film.
Data set [11] in a line: Adsorption from aqueous phase on polystyrene film.
Data set [12] can be described thus: Adsorption from aqueous phase on uncoated crystal oscillator.
The mark [13] stands for this setting: Table 3, tadpole, intensity of the anesthetic.
The mark [14] stands for this setting: Table 6, concentration ratio of aqueous solution, methanol as 1.00.
[15] abbreviates: Comparative Example 8, PMLG, halothane 9.48×10^-4 M.
The mark [16] stands for this setting: Comparative Example 7, Polyvinyl alcohol, 45° C., halothane 9.48×10^-4 M.
Where [17] appears, read: Comparative Example 5, Polystyrene, 45° C., halothane 9.48×10^-4 M.

Like-named read-outs stand apart in the source and are kept apart here.

For `CCO` [ethanol], the Potency with tadpole [1] (setting [13]) and in the data set on tadpole [1] (setting [14]) was 2.43 each time. The Potency atm with tadpole [2] was 5.19.
On to `CCCCCCCCCO` [1-nonanol], for which the Potency in the data set with tadpole [1] (setting [13]) is listed as 4.03 × 10^4. For the same compound, the Potency atm in the data set with tadpole [3] is on record as 2.51 × 10^8.
Turning to `CCCCCCO` [1-hexanol], in the data set on tadpole [1] (setting [13]), the Potency is 1.12 × 10^3.
In the case of `CCCCO` [1-butanol], the Potency atm in the data set with tadpole [2] was 9.41 × 10^2.
For `CCCCCC` [hexane], in the data set with tadpole [1] (setting [13]), the Potency is 6.75 × 10^4. In addition, in the data set with tadpole [2], the Potency atm is listed as 5.21 × 10^4.
`CC(C)=O` [acetone]: the Potency with tadpole [1] (setting [13]) and in the data set on tadpole [1] (setting [14]) was 3.47 each time. Also, the Potency atm in the data set on tadpole [2] amounted to 1.76.
On to `CCCCCCCCO` [1-octanol], for which the Potency in the data set on tadpole [1] (setting [13]) is recorded as 7.93 × 10^3. Also, in the data set with tadpole [3], the Potency atm is 1.21 × 10^7.
In the case of `OCc1ccccc1` [benzylalcohol], in the data set with tadpole [1] (setting [13]), the Potency is recorded as 5.01 × 10^2. Further, the Potency atm in the data set with tadpole [3] is on record as 6.25 × 10^5.
With `CCCCCCCCCCO` [1-decanol], the Potency in the data set on tadpole [1] (setting [13]) is reported as 1.00 × 10^5. Further, the Potency atm in the data set with tadpole [2] was 1.11 × 10^9.
Regarding `CCOCC` [diethyl ether], the Potency atm with tadpole [2] worked out at 6.43.
Regarding `CC(=O)/C=C/C1=C(C)CCCC1(C)C` [β-ionone], in data set [4] (Example 6, FIG. 9), the “frequency change in saturated vapor” value was “the frequency rapidly decreases and then becomes constant soon”. In data set [5] (45° C., strychnine 58.3 μM, β-ionone 125 μM, FIG. 7, FIG. 8), the reversibility of adsorption entry is “reversible”.
In the case of `FC(F)(F)C(Cl)Br` (centres unmarked) [halothane], the Adsorbed amounts is on record as 176 ng in data set [6] (setting [15]); 249 ng in [7]; 74 ng in [8]; 82 ng in [9]; 53 ng in [10] (setting [16]); 74 ng in data set [11] (setting [17]). The values for the Adsorbed amounts in data set [5] (20° C.) and in [5] (45° C.) were 101 ng and 318 ng, respectively. The “Frequency Changes -ΔF” value is reported as 168 Hz in data set [6] (setting [15]); 237 Hz in data set [7]; 70 Hz in [8]; 78 Hz in data set [9]; 50 Hz in data set [10] (setting [16]); 70 Hz in data set [11] (setting [17]). In addition, the figures for the “Frequency Changes -ΔF” value in [5] (20° C.) and in [5] (45° C.) were 96 Hz and 303 Hz, respectively. The “adsorption amount versus film thickness” value in data set [4] (Example 20, 25° C., 2 μl halothane, FIG. 23) was “linearly increased”. The Potency in the data set with tadpole [1] (setting [13]) is given as 4.47 × 10^3. Besides, the Potency atm in the data set on tadpole [3] is given as 1.72 × 10^3. In addition, in [5] (Example 14, aqueous, 45° C., halothane 3.00×10^-4 M, FIG. 19), the “adsorbed amount versus film thickness” value is on record as “increased with increased film thickness”.
Turning to `CCCCC` [pentane], the Potency in the data set with tadpole [1] (setting [13]) is on record as 1.51 × 10^4. Further, the Potency atm in the data set with tadpole [3] was 3.34 × 10^3.
Regarding `COC(F)(F)C(Cl)Cl` [methoxyflurane], the Potency in the data set with tadpole [1] (setting [13]) is recorded as 4.86 × 10^3. In the data set with tadpole [3], the Potency atm was 1.82 × 10^4.
For `CO` [methanol], the Potency with tadpole [1] (setting [13]) and in the data set on tadpole [1] (setting [14]) was 1.00 throughout.
In the case of `O=C1C[C@@H]2OCC=C3CN4CC[C@]56c7ccccc7N1[C@H]5[C@H]2[C@H]3C[C@H]46` [Strychnine, strychnine], the “Partition Coefficient” value in data set [6] (Table 2, coating: Polymethyl-L-glutamate film) is on record as 0.02 10^-3; in [10] (Table 2, coating: Polyvinyl alcohol film), 0.03 10^-3; in data set [11] (Table 2, coating: Polystyrene film), 0.05 10^-3; in data set [12] (Table 2, coating: None), 0.03 10^-3. The “frequency changes due to adsorption” value was “very little frequency changes” in [11] (Comparative Example 4, polystyrene-coated, regardless of temperature, FIG. 12) and “little or no frequency changes” in data set [12] (Comparative Example 3, uncoated, regardless of temperature, FIG. 12).
As for `CC1OC(C)OC(C)O1` (centres unmarked) [paraldehyde], the Potency atm in the data set with tadpole [3] is given as 8.20 × 10^2.
Regarding `ClC(Cl)Cl` [chloroform], the Potency in the data set on tadpole [1] (setting [13]) is 7.62 × 10^2. Also, the Potency atm in the data set with tadpole [2] is given as 4.62 × 10^2.

The values above are taken from patent publication US5447869A, “Method of detecting bitter or odorous substances and apparatus therefor” (Sogo Pharmaceutical Company Limited, priority 1987, dated 1995).
